Experimental data from publication PMC13252604, “First Generation Proteolysis Targeting Chimeras (PROTACs) for the Treatment of Progeria” (Advanced Science, 2026).

Tests used:
[1] = test system: overall protein abundance; test: Global proteomic analysis; type: cell-based; conditions: 5 µM compound vs vehicle, three independent samples each
From the text: (A) Input IP .LM123L T-!=> V,!=>
MW Veh Cpd 2 Cpd 2 Veh !!!!!"#$$#B -45665 T4--8 -4;?,;
Progerin !!!!!E#)*+,- ,V4:-Ise::::: :etpoooomX,?4?V:enst9mmqo,848; !?#$B?CDEFCBG+I-+G.BLG+ […]
!!!!!*+,- 84;66L<-,VI9e::::::esnnsmqmXV4-;VL<-,?:estm9XpoX?4T-?L<-,8 FFFFF0BNNB$ :em9Xn […]
IgG heavy chain Iqep:m:p ne:qmppo:m :esmpqtmpn FFFFFSB#T89:I9em:m […]
50- Iqe9mt:: :eoX9ppnnm :eoqpq9s9p X9YF8=F>.-B2?E+FE??+E?@BBCA
FFFFF0BNNB$ rrrFNBF:eqoqs
Cpd 2 Veh FFFFFSB#T89:rrr […]
Vehicle .LM123L T-!=>(%C" V,!=> […]
50- !!!!!C#' -4TT8VLamin C -4T:T; (%$$-4-:?5T '()*+
!!!!!E#)*+,- ,V4:-β-Actin ,?4?V ,848; D(%
37- !!!!!*+,- 84;66L<-,V V4-;VL<-,? ?4T-?L<-,8 ,-)*+ […]
Abundance Ratio (log2): Ve h / Cpd 2
Supporting Figure S2. Ternary complex formation, progerin engagement and global selectivity of compound 2. (A) Progeroid […]/G609G fibroblasts treated with vehicle (0.1% DMSO) or compound 2 (5 µM) were subjected to immunoprecipitation with an anti-CRBN antibody and then immunoblotted with an anti-progerin antibody. Bar graph represents mean±sem of 2 independent experiments. (B) Representative progerin immunoblotting of the soluble fraction of LmnaG609G/G609G cell homogenates treated with […]
indicated temperature. (C) Thermal denaturation curves of progerin in the presence of vehicle (black) or compound 2 at 10 µM (red, DTm=0.7±0.1 °C) or 25 µM (blue, […]
of compound 2 (IC50=7±1 µM). […]

Stability in mouse serum = type: in vitro ADME
From the text: TABLE 1 Pharmacokinetic parameters of PROTAC 2. | column: Stability (hours) ^b / m‐serum

With CC1(C)Oc2cc3oc(=O)ccc3cc2C[C@@H]1OC(=O)CCCCCNc1cccc2c1C(=O)N(C1CCC(=O)NC1=O)C2=O (some centres unmarked) [compound 2] the “alterations in overall protein abundance (global proteomics)” value [1] was “did not identify significant alterations in overall protein abundance” and the “Stability (hours) m‐serum” value (Stability in mouse serum) was 0.28 ± 0.02 h.
